In patent US5041567A, “Antibacterial monic acid derivatives” (Beecham Group plc, priority 1982, dated 1991):
In brackets after ≈: the same amount, converted by molar mass. Read-outs that look alike come from different tables or passages of the source.

Experiments:
[1] = tested on: Past. multocida PA1; test: MIC against veterinary bacteria in vitro; conditions: Pasteurella multocida, PA1, 18 h
Description: (§1) The activity of the compounds of the Examples against various veterinarily important bacteria, was assayed in vitro using two-fold serial dilutions in Diagnostic Sensitivity Test Agar inoculated with 10^4 organisms.

[2] = tested on: M. suipneumoniae NB12; test: MIC against mycoplasma in vitro; format: cell-based; conditions: Mesomycoplasma hyopneumoniae, 144 h; M. suipneumoniae NB12; Friis broth, 0.9% agarose, 6 days, 37° C.; read-out: MIC
[3] = tested on: M. suipneumoniae UCD 1; test: MIC against mycoplasma in vitro; format: cell-based; conditions: Mesomycoplasma hyopneumoniae, UCD1, 144 h; M. suipneumoniae UCD 1; 6 days, 37° C.; read-out: MIC
[4] = tested on: M. suipneumoniae Str. 11; test: MIC against mycoplasma in vitro; format: cell-based; conditions: Mesomycoplasma hyopneumoniae, 144 h; M. suipneumoniae Str. 11; 6 days, 37° C.; read-out: MIC
[5] = tested on: Haemophilus influenzae Wy21; test: MIC against human bacteria in vitro; format: cell-based; conditions: Haemophilus influenzae Wy21; 5% chocolated horse blood agar, 18 hours; read-out: MIC
[6] = tested on: Past. multocida PA2; test: MIC against veterinary bacteria in vitro; conditions: Pasteurella multocida, PA2, 18 h
Description: as §1

[7] = tested on: M. hyorhinis ATCC 25021; test: MIC against mycoplasma in vitro; format: cell-based; conditions: Mesomycoplasma hyorhinis, ATCC25021, 144 h; M. hyorhinis ATCC 25021; 6 days, 37° C.; read-out: MIC
[8] = tested on: M. dispar NCTC 10125; test: MIC against mycoplasma in vitro; format: cell-based; conditions: 144 h
[9] = tested on: Sarcina lutea 8340; test: MIC against human bacteria in vitro; format: cell-based
[10] = tested on: Strep. pneumoniae CN33; test: MIC against human bacteria in vitro; format: cell-based; conditions: Streptococcus pneumoniae
[11] = tested on: M. gallisepticum S6; test: MIC against mycoplasma in vitro; format: cell-based; conditions: Mycoplasmoides gallisepticum, 144 h; M. gallisepticum S6; 6 days, 37° C.; read-out: MIC
[12] = tested on: M. suipneumoniae NCTC 10110; test: MIC against mycoplasma in vitro; format: cell-based; conditions: Mesomycoplasma hyopneumoniae, NCTC10110, 144 h; M. suipneumoniae NCTC 10110; 6 days, 37° C.; read-out: MIC
[13] = tested on: M. suipneumoniae TAM 6N; test: MIC against mycoplasma in vitro; format: cell-based; conditions: Mesomycoplasma hyopneumoniae, TAM6N, 144 h; M. suipneumoniae TAM 6N; 6 days, 37° C.; read-out: MIC
[14] = tested on: Strep. suis (group D) SPS11; test: MIC against veterinary bacteria in vitro; conditions: Streptococcus suis, 18 h
Description: as §1

[15] = tested on: M. suipneumoniae PW/C/210; test: MIC against mycoplasma in vitro; format: cell-based; conditions: Mesomycoplasma hyopneumoniae, 144 h; M. suipneumoniae PW/C/210; 6 days, 37° C.; read-out: MIC
[16] = tested on: Past. haemolytica PA5; test: MIC against veterinary bacteria in vitro; conditions: Mannheimia haemolytica, PA5, 18 h
Description: as §1

[17] = tested on: M. suipneumoniae JF 435; test: MIC against mycoplasma in vitro; format: cell-based; conditions: Mesomycoplasma hyopneumoniae, JF435, 144 h; M. suipneumoniae JF 435; 6 days, 37° C.; read-out: MIC
[18] = tested on: Strep. agalactiae 2788-B; test: MIC against human bacteria in vitro; format: cell-based; conditions: Streptococcus agalactiae
[19] = tested on: E. coli NCTC 10418; test: MIC against veterinary bacteria in vitro; conditions: Escherichia coli, NCTC10418, 18 h
Description: as §1

[20] = tested on: E. coli NCTC 10418; test: MIC against human bacteria in vitro; format: cell-based; conditions: Escherichia coli, NCTC10418, 18 h
[21] = tested on: Neisseria catarrhalis 1502; test: MIC against human bacteria in vitro; format: cell-based
[22] = tested on: Strep. agalactiae SPA1; test: MIC against veterinary bacteria in vitro; conditions: Streptococcus agalactiae, SPA1, 18 h
Description: as §1

[23] = tested on: Strep. pyogenes R80/421-A; test: MIC against human bacteria in vitro; format: cell-based; conditions: Streptococcus pyogenes
[24] = tested on: Staph. aureus Oxford; test: MIC against human bacteria in vitro; format: cell-based; conditions: Staphylococcus aureus; Staph. aureus Oxford; 5% chocolated horse blood agar, 18 hours; read-out: MIC
[25] = tested on: E. coli E1; test: MIC against veterinary bacteria in vitro; conditions: Escherichia coli, E1, 18 h
Description: as §1

[26] = tested on: P. mirabilis 889; test: MIC against human bacteria in vitro; format: cell-based; conditions: Proteus mirabilis, 889, 18 h
[27] = tested on: M. bovigenitalium ATCC 14173; test: MIC against mycoplasma in vitro; format: cell-based; conditions: 144 h
[28] = tested on: Staph. aureus 152 (pen. sens); test: MIC against veterinary bacteria in vitro; conditions: Staphylococcus aureus, 18 h
Description: as §1

[29] = tested on: M. suipneumoniae MS 16; test: MIC against mycoplasma in vitro; format: cell-based; conditions: Mesomycoplasma hyopneumoniae, MS16, 144 h; M. suipneumoniae MS 16; 6 days, 37° C.; read-out: MIC
[30] = tested on: Corynebacterium xerosis 9755; test: MIC against human bacteria in vitro; format: cell-based
[31] = tested on: Ps. aeruginosa NCTC 10662; test: MIC against human bacteria in vitro; format: cell-based; conditions: Pseudomonas aeruginosa
[32] = tested on: Staph. aureus W2827; test: MIC against human bacteria in vitro; format: cell-based; conditions: Staphylococcus aureus
[33] = tested on: S. dublin S7; test: MIC against veterinary bacteria in vitro; conditions: Salmonella enterica, S7, 18 h
Description: as §1

[34] = tested on: M. suipneumoniae ATCC 25095; test: MIC against mycoplasma in vitro; format: cell-based; conditions: Mesomycoplasma hyopneumoniae, ATCC25095, 144 h; M. suipneumoniae ATCC 25095; 6 days, 37° C.; read-out: MIC
[35] = tested on: Staph. aureus Russell; test: MIC against human bacteria in vitro; format: cell-based; conditions: Staphylococcus aureus

Row | SMILES | MIC [1] [µg/mL] | MIC [2] [µg/mL] | MIC [3] [µg/mL] | MIC [4] [µg/mL] | MIC [5] [µg/mL] | MIC [6] [µg/mL] | MIC [7] [µg/mL] | MIC [11] [µg/mL] | MIC [12] [µg/mL] | MIC [13] [µg/mL] | MIC [14] [µg/mL] | MIC [15] [µg/mL] | MIC [16] [µg/mL] | MIC [17] [µg/mL] | MIC [19] [µg/mL] | MIC [20] [µg/mL] | MIC [22] [µg/mL] | MIC [24] [µg/mL] | MIC [25] [µg/mL] | MIC [26] [µg/mL] | other results
1 | C/C(=C/c1ncc(-c2ccccc2)o1)C[C@@H]1OC[C@H](C[C@@H]2O[C@H]2[C@@H](C)[C@H](C)O)[C@@H](O)[C@H]1O [Example 2, 2-{3-[5-(2,3-epoxy-5-hydroxy-4-methylhexyl)-3,4-dihydroxytetrahydropyran-2-yl]-2-methylprop-1(Z)-enyl}-5-phenyloxazole] | > 80 | > 10 | 10 (≈ 22.5 µM) | 10 (≈ 22.5 µM) | 12.5 (≈ 28.2 µM) | 20 (≈ 45.1 µM) | 5 (≈ 11.3 µM) | > 10 | 10 (≈ 22.5 µM) | > 10 | > 80 | 5 (≈ 11.3 µM) | > 80 | > 10 | > 80 | > 50 | 20 (≈ 45.1 µM) | 25 (≈ 56.4 µM) | > 80 | > 50 | MIC ([8]; M. dispar NCTC 10125, 6 days, 37° C., read-out: MIC): 2.5 µg/mL (≈ 5.64 µM); MIC ([9]; Micrococcus luteus, 8340, 18 h): > 50 µg/mL; MIC ([10]; CN33, 18 h): > 50 µg/mL; MIC ([18]; 2788B, 18 h): > 50 µg/mL; MIC ([21]; Neisseria, 1502, 18 h): > 50 µg/mL; MIC ([23]; R80/421A, 18 h): > 50 µg/mL; MIC ([27]; M. bovigenitalium ATCC 14173, 6 days, 37° C., read-out: MIC): 0.5 µg/mL (≈ 1.13 µM); MIC [28]: 20 µg/mL (≈ 45.1 µM); MIC [29]: 5 µg/mL (≈ 11.3 µM); MIC ([30]; Corynebacterium xerosis, 9755, 18 h): > 50 µg/mL; MIC ([31]; NCTC10662, 18 h): > 50 µg/mL; MIC ([32]; W2827, 18 h): > 50 µg/mL; MIC [33]: > 80 µg/mL; MIC [34]: 10 µg/mL (≈ 22.5 µM); MIC ([35]; 18 h): > 50 µg/mL
2 | C/C(=C\c1ncc(-c2ccccc2)s1)C[C@@H]1OC[C@H](C[C@@H]2O[C@H]2[C@@H](C)[C@H](C)O)[C@@H](O)[C@H]1O [Example 29, 2-(1-Normon-2-yl)-5-phenylthiazole A] | > 80 | 10 (≈ 21.8 µM) | > 10 | 10 (≈ 21.8 µM) | 50 (≈ 109 µM) | 80 (≈ 174 µM) | 10 (≈ 21.8 µM) | > 10 | > 10 | > 10 | > 80 | 10 (≈ 21.8 µM) | > 80 | > 10 | > 80 | > 100 | 40 (≈ 87 µM) | 25 (≈ 54.4 µM) | > 80 | > 100 | MIC [8]: 2.5 µg/mL (≈ 5.44 µM); MIC ([9]; Micrococcus luteus, Sarcina lutea 8340, 5% chocolated horse blood agar, 18 hours, read-out: MIC): > 100 µg/mL; MIC ([10]; Strep. pneumoniae CN33, 5% chocolated horse blood agar, 18 hours, read-out: MIC): 50 µg/mL (≈ 109 µM); MIC ([18]; Strep. agalactiae 2788-B, 5% chocolated horse blood agar, 18 hours, read-out: MIC): 50 µg/mL (≈ 109 µM); MIC ([21]; Neisseria catarrhalis 1502, 5% chocolated horse blood agar, 18 hours, read-out: MIC): 50 µg/mL (≈ 109 µM); MIC ([23]; Strep. pyogenes R80/421-A, 5% chocolated horse blood agar, 18 hours, read-out: MIC): 50 µg/mL (≈ 109 µM); MIC [27]: 1 µg/mL (≈ 2.18 µM); MIC [28]: 10 µg/mL (≈ 21.8 µM); MIC [29]: 10 µg/mL (≈ 21.8 µM); MIC ([30]; Corynebacterium xerosis 9755, 5% chocolated horse blood agar, 18 hours, read-out: MIC): > 100 µg/mL; MIC ([31]; NCTC10662, Ps. aeruginosa NCTC 10662, 5% chocolated horse blood agar, 18 hours, read-out: MIC): > 100 µg/mL; MIC ([32]; Staph. aureus W2827, 5% chocolated horse blood agar, 18 hours, read-out: MIC): 50 µg/mL (≈ 109 µM); MIC [33]: > 80 µg/mL; MIC [34]: 10 µg/mL (≈ 21.8 µM); MIC ([35]; Staph. aureus Russell, 5% chocolated horse blood agar, 18 hours, read-out: MIC): 100 µg/mL (≈ 218 µM)
